{"source": "paper PMC4841536", "about": "“Characterization of the Anti-HCV Activities of the New Cyclophilin Inhibitor STG-175” (PLoS ONE, 2016)", "key": {"[1]": {"assay": "alamarBlue cytotoxicity (CC50), GT3a replicon cell line", "details": "human", "protocol": "The anti-HCV activity of STG-175 was conducted using a panel of luciferase reporter replicon cell lines including GT1a, GT1b, GT2a, GT3a and GT4a as we described previously. The GT1a subgenomic renilla luciferase reporter replicon H77 RLucP (7) was supplied by Dr. Delaney. The GT1b subgenomic firefly luciferase reporter replicon pFK-I389/NS3-3’ [29] was supplied by Dr. Bartenschlager. The GT1B subgenomic NS3, NS5A and NS5B mutants were created via homologous recombination using the In-Fusion HD Cloning kit (Clontech) as we described previously. The GT2a genomic luciferase reporter replicon Luc-Neo-JFH-1 was generated as previously. The plasmid pFK-Luc-JFH1 was supplied from Drs. […] The CellTiter-Fluor™ Cell Viability Assay is a non-lytic fluorescence assay, which measures the number of live cells. […] Luciferase activity was determined using the Luciferase Assay System (Promega) in a Berthold luminometer. […] Viable cells continuously convert resazurin to resorufin, increasing the overall fluorescence and color of the media surrounding cells.\nFig 2 Anti-HCV activities of STG-175 among GTs. […] Luciferase activity was determined using the Luciferase Assay System in a Berthold luminometer. […] Data are expressed as mean of relative light units and calculated EC50s are presented. […]"}, "[2]": {"system": "Con1 (GT1b) replicon colonies A, B, C (D320E NS5A)", "assay": "microbe, parasite or virus in culture", "type": "cell-based, hepatitis C virus", "details": "for pEC50: Hepatitis C virus, GT1B", "protocol": "(§1) Huh-7 cells expressing subgenomic Con1 (GT1b) replicon were incubated with STG-175 and 100 μg/ml of G418 in 10 cm CellBIND™ plates (Corning). Cells were split every 3 days at 1:6 and G418 concentration was increased sequentially to 200 and 300 μg/mL. […] At this point, medium was changed every 3–4 days until emergence of resistant clones. Clones were individually transferred to 24-well CellBIND using cloning disks. […] Each clone was split in 2 identical plates and was separately maintained under 0.5 or 1.0 μM STG-175 and 100 μg/mL of G418. Once the colonies were established, G418 concentration was increased to 300 μg/mL. […] Briefly, total RNA was prepared using the RNeasy Plus Mini Kit as per manufacturer’s recommendation. Two hundred ng of total RNA was used for cDNA production using primers specific to the NS3-NS5B region or oligo(dT)18 using AccuScript High Fidelity 1st Strand cDNA Synthesis Kit (Stratagene). Amplicons were generated using primers defining the sequence at its 5’ and 3’ ends. The amplicons were gel purified, quantitated and sequenced using primers located internally in NS5A or NS5B reading to the 5’ and 3’ ends. Sequences were assembled and analyzed using the ClustalW algorithm within the MacVector program. The sequencing was conducted twice to ensure the authenticity of the nucleotide substitutions.\n(§2) Fig 3 Replicon clearance, replication rebound and resistance analyses. […] Then drugs were removed to allow viral replication rebound to occur. At each passage, samples of cells were collected, RNA extracted and analyzed by RT-PCR for HCV RNA levels. B. Emergence of resistance: Con1 replicon Huh-7 cells were passaged 22 times in the absence or presence of STG-175 or selected DAAs. At each passage, sample of cells were collected, RNA extracted and analyzed by RT-PCR for HCV RNA levels. C. […] Data are expressed as number of HCV RNA copies per cell. […] Data are expressed as mean of relative light units and calculated EC50s are presented. […] E. Degree of resistance of D320E and Y321N Con1 variants: Left panel. Wild-type (WT), D320E and D320/Y321N NS5A Con1 RNA were electroporated into Huh7.5.1 cells and replication monitored over 8 days by quantifying the levels of intracellular HCV RNA. Right panel. Same as just above except that increasing concentrations of STG-175 were added at the time of the electroporation. […] STG-175 is taken as the substance from the printed x-axis title 'STG-175 in Log nM'.\n(§3) We then sequenced the NS3-NS5B region of the HCV variants (colonies), which emerged after multiple passages under STG-175 selection. […] The five STG-175-resistant variants (5 colonies A to E) were then retested for STG-175 resistance by exposing them to increasing concentrations of STG-175 as we described previously."}, "[3]": {"system": "Con1 (GT1b) replicon colonies D, E (D320E/Y321N NS5A)", "assay": "microbe, parasite or virus in culture", "type": "cell-based, hepatitis C virus", "details": "for pEC50: Hepatitis C virus, GT1B", "protocol": "as §1, §2, §3"}}, "note": "pEC50: −log10 of the molar value. Where two headings read alike, the source gives them in different places."}
{"smiles": "CC=CCC(C)C(O)C1C(=O)NC(CC)C(=O)N(C)C(CSCCCCO)C(=O)N(C)C(CC(C)(C)O)C(=O)NC(C(C)C)C(=O)N(C)C(CC(C)C)C(=O)NC(C)C(=O)NC(C)C(=O)N(C)C(CC(C)C)C(=O)N(C)C(CC(C)C)C(=O)N(C)C(C(C)C)C(=O)N1C", "note": "(stereo not drawn) [STG-175]", "values": [{"measurement": "CC50 at 72 h", "setting": "[1]", "result": "> 10000", "unit": "nM"}, {"measurement": "average fold higher resistance than wild-type colonies, colonies A, B and C", "setting": "[2]", "result": 10, "unit": "fold"}, {"measurement": "enhancement of resistance compared to wild-type replicon, colony A", "setting": "[2]", "result": 7.2, "unit": "fold"}, {"measurement": "enhancement of resistance compared to wild-type replicon, colony B", "setting": "[2]", "result": 7.8, "unit": "fold"}, {"measurement": "enhancement of resistance compared to wild-type replicon, colony C", "setting": "[2]", "result": 15.1, "unit": "fold"}, {"measurement": "pEC50", "setting": "[2]; read-out: EC50, colony A (Clone A)", "result": 6.95}, {"measurement": "pEC50", "setting": "[2]; read-out: EC50, colony B (Clone B)", "result": 6.91}, {"measurement": "pEC50", "setting": "[2]; read-out: EC50, colony C (Clone C)", "result": 6.62}, {"measurement": "pEC50", "setting": "[2]; read-out: average EC50, colonies A, B and C", "result": 6.80}, {"measurement": "average fold higher resistance than wild-type colonies, colonies D and E", "setting": "[3]", "result": 33.8, "unit": "fold"}, {"measurement": "enhancement of resistance compared to wild-type replicon, colony D", "setting": "[3]", "result": 48.8, "unit": "fold"}, {"measurement": "enhancement of resistance compared to wild-type replicon, colony E", "setting": "[3]", "result": 18.9, "unit": "fold"}, {"measurement": "pEC50", "setting": "[3]; read-out: EC50, colony D (Clone D)", "result": 6.12}, {"measurement": "pEC50", "setting": "[3]; read-out: EC50, colony E (Clone E)", "result": 6.53}, {"measurement": "pEC50", "setting": "[3]; read-out: average EC50, colonies D and E", "result": 6.27}]}
